Test results taken from BindingDB's records for doi:10.1021/jm950655o (University of Arizona, 1996).

Biological target: Delta-type opioid receptor (Cavia porcellus)
Assay: Inhibition of binding [3H]cyclo[D-Pen2,p-Cl,-Phe4,D-Pen5] enkephalin to Opioid receptor delta 1 of guinea pig brain membrane (GPB) homogenates.

IC50: > 10 µM
Structure (SMILES): CC[C@H](C)[C@H](NC(=O)[C@H](CCCN=C(N)N)NC(=O)[C@H](CCCN=C(N)N)NC(=O)[C@H](CC(C)C)NC(=O)[C@H](Cc1ccccc1)NC(=O)[C@H](Cc1ccc(O)cc1)NC(=O)CNC(=O)[C@@H](N)Cc1ccc(O)cc1)C(=O)N[C@@H](CCCN=C(N)N)C(=O)N1CCC[C@H]1C(=O)N[C@@H](CCCCN)C(N)=O
